According to PMC6212834 (Nucleic Acids Research, 2018):

Target: T1, Csx1 (SisCsx1, SiCsx1) (Saccharolobus islandicus, UniProt F0NE21)
T1 sequence (F0NE21 1-454): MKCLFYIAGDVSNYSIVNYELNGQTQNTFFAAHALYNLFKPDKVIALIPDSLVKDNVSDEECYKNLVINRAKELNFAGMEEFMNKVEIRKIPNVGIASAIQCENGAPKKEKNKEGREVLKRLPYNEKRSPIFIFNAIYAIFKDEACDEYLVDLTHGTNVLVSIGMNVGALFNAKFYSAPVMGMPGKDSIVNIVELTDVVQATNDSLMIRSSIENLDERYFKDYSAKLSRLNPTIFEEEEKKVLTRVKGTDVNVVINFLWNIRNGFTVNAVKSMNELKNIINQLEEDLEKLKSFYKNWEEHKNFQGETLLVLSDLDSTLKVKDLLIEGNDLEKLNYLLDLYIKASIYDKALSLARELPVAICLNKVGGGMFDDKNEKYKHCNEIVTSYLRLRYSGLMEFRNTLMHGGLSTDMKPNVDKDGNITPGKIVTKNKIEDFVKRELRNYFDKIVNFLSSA
Assay: RNA
Type: biochemical

EC50: 7.4 nM
SMILES: Nc1ncnc2c1ncn2[C@@H]1O[C@@H]2COP(=O)(O)O[C@H]3[C@@H](O)[C@H](n4cnc5c(N)ncnc54)O[C@@H]3COP(=O)(O)O[C@H]3[C@@H](O)[C@H](n4cnc5c(N)ncnc54)O[C@@H]3COP(=O)(O)O[C@H]3[C@@H](O)[C@H](n4cnc5c(N)ncnc54)O[C@@H]3COP(=O)(O)O[C@H]2[C@H]1O [c-A4]
